Here are results for 2 compounds from patent publication US10959968B2, “Methods for treating c-Met-dependent cancers” (Board of Supervisors of Louisiana State University and …, priority 2016, dated 2021).

Molecules are shown by their SMILES.

The test system of test [1] is DU145 human prostate cancer cells (pMet, pAkt, pErk). The experiment in a line: Western blot of HGF-induced signaling in prostate cancer cells. The following applies: 30 min pretreatment, 30 min HGF. The format is cell-based. On the procedure: FIG. 4. A) Effect of HVS treatment on HGF-induced c-Met activation in human breast cancer cells using Western Blot analysis. Treatment with HVS caused a significant, dose-responsive inhibition of HGF-induced c-Met phosphorylation in MDA-MB-231, MCF-7, and BT-474 mammary tumor cells with no effect on total c-Met levels after treatment for 72 h, as compared to their respective vehicle-treated control groups. The visualization of β-tubulin was used as a loading control. (B) Effect of HVS on HGF-induced c-Met activation and its downstream mitogenic signaling in DU145 human prostate cancer cells, as compared to vehicle-treated control group, using Western Blot analysis. Cells were pre-treated for 30 minutes with either HVS at 0.1, 0.3, 1, and 5 μM or (−)-oleocanthal at 5, 10, and 20 μM doses in serum-free 0.4-media. 33 ng/mL HGF was then added for 30 minutes. Whole cell lysates were collected and assayed by Western Blot. The visualization of α-tubulin was used as a loading control. Representative Western Blots from each experiment are shown, N=3.
DU145 prostate tumor cells were pretreated for 30 minutes with the indicated compounds. Following pretreatment, cells were pulsed for thirty minutes with HGF, cell lysates were prepared and western blot analysis was performed to identify pMet, pAkt, pErk and tubulin.
On the technique in general: Immunoblotting shows a protein as a band on a membrane.

The subject of the next test is DU145 spheroids. Nature of the test: 3D spheroid growth, IncuCyte. The format is cell-based, human. Conditions: 10 micromolar, 72 hours. As to the method:
FIG. 9B: DU145 cells were grown in 10% FBS DMEM. Cells were collected after trypsinization and resuspended in phenol-red free DMEM with 10% FBS. Cells were labeled with Cell-Tracker Red (Life Technologies) for 5 minutes. After labeling cells were washed with PBS and transfer into 96-well Corning 7007 ULA round bottom plates at 1,000 cells/well in 100 μl phenol-red free media with 10% FBS and 5% Matrigel. […] Spheroids were grown at 37° C. and 5% CO2 in IncuCyte ZOOM (Essen Bioscience). Images were acquired every 4 h for a period of 72 h post-treatment and software analysis was design to identify the red object in the well. The data were expressed as fold increase in spheroids size at the end of the treatment using the “average red object area in the well” as determined by the IncuCyte software analysis. FIG. 9C: Visually representative spheroids that are quantitated in FIG. 9B.
To determine the effectiveness of these compounds under 3D growth conditions which more accurately predict effectiveness of new drugs in humans, DU145 spheroids were formed and allowed to grow for 72 hours. Images were recorded every 4 hours using the Incucyte platform. […] Compounds 9 and 10, at 10 micromolar reduced spheroid growth by about 50 percent (not shown).

In the next test the test system is MDA-MB231 spheroids. Nature of the test: 3D spheroid growth, IncuCyte. The format is cell-based, human. The following applies: 10 micromolar, results not shown. On the procedure: FIG. 9. (A). MDA-MB231 cells were grown in 10% FBS DMEM. Cells were collected after trypsinization and resuspended in phenol-red free DMEM with 10% FBS. Cells were labeled with CellTracker Red (Life Technologies) for 5 minutes. After labeling cells were washed with PBS and transfer into 96-well Corning 7007 ULA round bottom plates at 1,000 cells/well in 100 μl phenol-red free media with 10% FBS and 5% Matrigel. […] Spheroids were grown at 37° C. and 5% CO2 in IncuCyte ZOOM (Essen Bioscience). Images were acquired every 4 h for a period of 72 h post-treatment. The data were expressed as fold increase in spheroids size at the end of the treatment using the “average red object area in the well” as determined by the IncuCyte software analysis.
MDA-MB231 spheroids were all allowed to form and treated with compounds for up to 72 hours. Images were captured using the Incucyte platform.

`COc1cc(CCOC(=O)/C=C/c2cc(OC)c(O)c(OC)c2)ccc1N` [Compound 9, (E)-4-amino-3-methoxyphenethyl 3-(4-hydroxy-3,5-dimethoxyphenyl)-acrylate]: in test [1], the pAkt signaling entry is given as “did attenuate” and the pMet induction entry is listed as “did not lower”. In the test with DU145 spheroids, the “reduction of spheroid growth” value is listed as “about 50%”. The “effect on spheroid growth” value in the test on MDA-MB231 spheroids was “effective”.

`COc1cc(/C=C/C(=O)OCCc2ccc(N)nc2)cc(OC)c1O` [Compound 10, (E)-2-(6-aminopyridin-3-yl)ethyl 3-(4-hydroxy-3,5-dimethoxyphenyl)acrylate]: the “HGF-induced (Met dependent) signaling” value in test [1] is given as “appeared to increase”. Further, in the test with DU145 spheroids, the “reduction of spheroid growth” value is on record as “about 50%”. The “effect on spheroid growth” value with MDA-MB231 spheroids is recorded as “effective”.
